“And” between values parts separate entries of the source, which are not always exact repeats. Identical values can stand only once. Like-named read-outs stand apart in the source and are kept apart here. Where a SMILES comes first, the peptide text is derived from it. Bridges are numbered along the chain shown (N, C = ends). [ ]: non-standard residue; d: D form.
Assays:
B. malayi iPGM = B. malayi iPGM (Brugia malayi, UniProt Q4VWF8); assay: biochemical
O. volvulus iPGM = O. volvulus iPGM (Onchocerca volvulus, UniProt I6LDA6); assay: biochemical
O. volvulus iPGM, sequence (I6LDA6 whole entry, looked up): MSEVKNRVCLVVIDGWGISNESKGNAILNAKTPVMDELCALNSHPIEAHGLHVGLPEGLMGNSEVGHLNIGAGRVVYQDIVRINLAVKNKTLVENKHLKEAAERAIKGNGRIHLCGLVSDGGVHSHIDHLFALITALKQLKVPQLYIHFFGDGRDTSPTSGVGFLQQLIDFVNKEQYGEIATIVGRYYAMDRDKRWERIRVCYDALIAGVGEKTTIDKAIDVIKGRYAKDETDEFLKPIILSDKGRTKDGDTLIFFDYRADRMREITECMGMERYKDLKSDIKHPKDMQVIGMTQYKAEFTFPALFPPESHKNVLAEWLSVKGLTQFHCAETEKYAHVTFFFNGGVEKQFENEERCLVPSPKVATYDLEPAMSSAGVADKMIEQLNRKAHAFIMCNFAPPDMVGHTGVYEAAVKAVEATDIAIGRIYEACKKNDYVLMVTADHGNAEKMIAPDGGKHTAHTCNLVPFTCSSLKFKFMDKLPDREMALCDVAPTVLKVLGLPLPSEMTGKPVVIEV

D. immitis iPGM = assay type: biochemical, Dirofilaria immitis
E. coli iPGM = E. coli iPGM (Escherichia coli, UniProt P37689); assay: biochemical
E. coli iPGM, sequence (P37689 whole entry, looked up): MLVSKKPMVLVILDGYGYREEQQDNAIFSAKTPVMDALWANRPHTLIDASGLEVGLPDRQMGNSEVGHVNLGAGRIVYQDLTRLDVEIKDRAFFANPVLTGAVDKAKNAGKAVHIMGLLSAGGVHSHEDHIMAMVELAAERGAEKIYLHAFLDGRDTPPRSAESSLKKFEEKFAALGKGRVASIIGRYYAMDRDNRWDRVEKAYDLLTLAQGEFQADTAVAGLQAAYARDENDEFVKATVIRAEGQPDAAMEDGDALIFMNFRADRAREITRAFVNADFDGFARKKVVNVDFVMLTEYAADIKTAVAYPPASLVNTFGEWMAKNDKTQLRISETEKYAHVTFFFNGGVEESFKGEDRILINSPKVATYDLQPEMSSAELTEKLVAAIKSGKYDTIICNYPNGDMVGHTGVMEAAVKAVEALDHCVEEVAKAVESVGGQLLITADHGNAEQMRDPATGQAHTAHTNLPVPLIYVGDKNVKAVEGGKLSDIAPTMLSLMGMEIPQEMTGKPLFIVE

[1] = system: iPGM orthologs and dPGM isozymes; assay type: biochemical
[2] = read-out: B. malayi iPGM Max Inhibition
[3] = read-out: O. volvulus iPGM Max Inhibition
[4] = read-out: E. coli iPGM Max Inhibition

B. malayi iPGM, sequence (Q4VWF8 whole entry, looked up): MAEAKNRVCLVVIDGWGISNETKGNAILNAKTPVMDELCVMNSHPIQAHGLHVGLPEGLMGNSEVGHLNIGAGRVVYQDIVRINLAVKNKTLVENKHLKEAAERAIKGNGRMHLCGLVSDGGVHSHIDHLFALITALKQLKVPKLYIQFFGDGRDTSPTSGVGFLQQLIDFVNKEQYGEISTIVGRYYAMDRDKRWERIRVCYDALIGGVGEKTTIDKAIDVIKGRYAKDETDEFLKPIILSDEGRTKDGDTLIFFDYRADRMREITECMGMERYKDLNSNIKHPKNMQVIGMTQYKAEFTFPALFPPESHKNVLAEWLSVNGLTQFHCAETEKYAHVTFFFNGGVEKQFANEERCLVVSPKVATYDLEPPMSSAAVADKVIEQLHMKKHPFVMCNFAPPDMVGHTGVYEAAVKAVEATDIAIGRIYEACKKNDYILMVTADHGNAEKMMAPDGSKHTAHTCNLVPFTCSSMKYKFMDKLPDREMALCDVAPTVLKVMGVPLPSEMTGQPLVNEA

## ^Ac-DYLYGTCG [Ce-2tail]
B. malayi iPGM
  B. malayi iPGM Max Inhibition: −10.2 ± 3.3
O. volvulus iPGM
  O. volvulus iPGM Max Inhibition: −11.6 ± 5.3
D. immitis iPGM
  D. immitis iPGM Max Inhibition: −1.9 ± 10.3
E. coli iPGM
  E. coli iPGM Max Inhibition: −21.1 ± 2.7
[1]
  activity on all PGMs: inactive

## ^Ac-DYDYPGDYSYLY [Ce-L2d]
B. malayi iPGM
  B. malayi iPGM Max Inhibition: −7.3 ± 2.0
O. volvulus iPGM
  O. volvulus iPGM Max Inhibition: −15.7 ± 8.3
D. immitis iPGM
  D. immitis iPGM Max Inhibition: −5.2 ± 4.9
E. coli iPGM
  E. coli iPGM Max Inhibition: −21.1 ± 2.4
[1]
  inhibitory activity on the iPGM orthologs: completely inactive

## CC(C)C[C@@H]1NC(=O)[C@@H](Cc2ccc(O)cc2)NC(=O)CSC[C@@H](C(=O)N[C@@H](CC(N)=O)C(=O)N[C@H](C(=O)N[C@@H](CS)C(=O)NCC(N)=O)[C@@H](C)O)NC(=O)[C@H](CC(N)=O)NC(=O)[C@@H]2CCCN2C(=O)[C@H](Cc2c[nH]c3ccccc23)NC(=O)[C@H](CCC(=O)O)NC1=O [Bm-4] ({CH2CO}-[dY]LEWPNCNTCG-NH2; thioether N-7)
B. malayi iPGM
  pIC50 B. malayi iPGM: 6.24
B. malayi iPGM; [2]
  Emax: 86.3 ± 1.4%
O. volvulus iPGM
  pIC50 O. volvulus iPGM: 6.10
O. volvulus iPGM; [3]
  Emax: 85.7 ± 6.5%
D. immitis iPGM
  D. immitis iPGM Max Inhibition: −88.1 ± 0.8
E. coli iPGM
  E. coli iPGM PIC50, M: 5.56 ± 0.16 M
E. coli iPGM; [4]
  Emax: 76.3 ± 8.3%

## CC(C)C[C@H](NC(=O)[C@H](Cc1ccc(O)cc1)NC(=O)[C@@H]1CSCC(=O)N[C@H](Cc2ccc(O)cc2)C(=O)N[C@@H](CC(=O)O)C(=O)N[C@@H](Cc2ccc(O)cc2)C(=O)N2CCC[C@H]2C(=O)NCC(=O)N[C@@H](CC(=O)O)C(=O)N[C@@H](Cc2ccc(O)cc2)C(=O)N1)C(=O)N[C@@H](Cc1ccc(O)cc1)C(=O)NCC(=O)N[C@H](C(=O)N[C@@H](CS)C(N)=O)[C@@H](C)O [Ce-2a]
B. malayi iPGM
  B. malayi iPGM PIC50, M: 8.07 ± 0.10 M and 9.49 ± 0.08 M
B. malayi iPGM; [2]
  Emax: 99.2 ± 5.3%
  inhibition at 0.0005 µM: 100.3 ± 0.8%
O. volvulus iPGM
  O. volvulus iPGM PIC50, M: 7.31 ± 0.09 M
  pIC50 O. volvulus iPGM: 9.68
O. volvulus iPGM; [3]
  Emax: 97.7 ± 4.4%
  inhibition at 0.0005 µM: 97.5 ± 2.7%
D. immitis iPGM
  D. immitis iPGM Max Inhibition: −100.1 ± 5.6
  D. immitis iPGM PIC50, M: 9.68 ± 0.09 M
D. immitis iPGM; 0.0005 µM
  D. immitis iPGM Max Inhibition: −92.5 ± 4.0
E. coli iPGM
  E. coli iPGM PIC50, M: 8.51 ± 0.14 M and 9.58 ± 0.02 M
E. coli iPGM; [4]
  Emax: 99.2 ± 8.5%
  inhibition at 0.0005 µM: 84.1 ± 9.5%
[1]
  inhibitory activity on the iPGM orthologs: subnanomolar potency

— patent US20200399318A1, “PEPTIDE INHIBITORS OF PHOSPHOGLYCERATE MUTASE AND METHODS OF USE” (priority 2016, published 2020)
